Experimental data reported in paper PMC10618370, “Mur ligase F as a new target for the flavonoids quercitrin, myricetin, and (–)-epicatechin” (Journal of Computer-Aided Molecular Design, 2023).
“Also recorded” adds a separate entry of the source.

Key:
[1] = biological target: E. coli MurC (Escherichia coli, UniProt P17952); assay: MurC inhibition assay (Malachite green); type: biochemical; conditions: 0.25 h; residual activity at 100 µM compound; mean ± SD of three independent experiments; read-out: RA (%) @ 100 µM MurC
Chain of E. coli MurC (P17952 whole entry): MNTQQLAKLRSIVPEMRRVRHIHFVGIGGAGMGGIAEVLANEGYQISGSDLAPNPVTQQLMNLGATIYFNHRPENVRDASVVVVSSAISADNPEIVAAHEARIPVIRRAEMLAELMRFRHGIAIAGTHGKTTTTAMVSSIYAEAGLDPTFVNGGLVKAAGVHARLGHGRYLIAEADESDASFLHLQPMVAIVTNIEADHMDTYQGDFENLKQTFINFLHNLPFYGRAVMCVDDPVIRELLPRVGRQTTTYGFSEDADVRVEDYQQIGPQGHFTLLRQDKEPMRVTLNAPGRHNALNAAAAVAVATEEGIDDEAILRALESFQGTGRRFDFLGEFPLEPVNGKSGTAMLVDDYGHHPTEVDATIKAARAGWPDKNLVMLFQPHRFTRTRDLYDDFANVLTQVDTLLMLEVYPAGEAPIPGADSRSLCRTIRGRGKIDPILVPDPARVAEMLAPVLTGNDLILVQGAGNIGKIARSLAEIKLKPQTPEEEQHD
Procedure: (§1) Inhibition of the Mur ligases was determined using the Malachite green assay, with slight modifications. […] In all cases, the final concentration of DMSO was 5% (v/v).
(§2) After incubation for 15 min at 37 °C, the enzyme reaction was terminated by the addition of 100 µM Biomol green reagent®, and the absorbance was measured at 650 nm after 5 min. Experiments to determine the RA run in triplicate. Residual activities were calculated with respect to control assays without the tested compounds, but with the 5% DMSO carrier. The IC50 values were determined by measuring the residual activities at seven different compound concentrations, and they represent the concentration of the compound at which the residual activity was 50%. IC50 values were obtained by plotting the residual enzyme activities against the applied inhibitor concentrations, fitting the experimental data to the 4-parameter Hill equation: Y=Bottom-Top-Bottom/1+10^logIC50-X×HillSlope , where X is the logarithm of the inhibitor concentration, and Y is the residual activity. The IC50 values were determined in three independent experiments. GraphPad Prism 8.2.0 (GraphPad Software, San Diego, CA, USA) was used for the fitting procedure.
(§3) The assay detects the phosphate formed in each enzyme reaction. To avoid any possibility of the compounds inhibiting the enzymes due to aggregation, a detergent (0.005% Triton-X114) was added to the test system.

[2] = biological target: E. coli MurD (Escherichia coli, UniProt P14900); assay: MurD inhibition assay (Malachite green); type: biochemical; conditions: 0.25 h; residual activity at 100 µM compound; mean ± SD of three independent experiments; read-out: RA (%) @ 100 µM MurD
Chain of E. coli MurD (P14900 whole entry): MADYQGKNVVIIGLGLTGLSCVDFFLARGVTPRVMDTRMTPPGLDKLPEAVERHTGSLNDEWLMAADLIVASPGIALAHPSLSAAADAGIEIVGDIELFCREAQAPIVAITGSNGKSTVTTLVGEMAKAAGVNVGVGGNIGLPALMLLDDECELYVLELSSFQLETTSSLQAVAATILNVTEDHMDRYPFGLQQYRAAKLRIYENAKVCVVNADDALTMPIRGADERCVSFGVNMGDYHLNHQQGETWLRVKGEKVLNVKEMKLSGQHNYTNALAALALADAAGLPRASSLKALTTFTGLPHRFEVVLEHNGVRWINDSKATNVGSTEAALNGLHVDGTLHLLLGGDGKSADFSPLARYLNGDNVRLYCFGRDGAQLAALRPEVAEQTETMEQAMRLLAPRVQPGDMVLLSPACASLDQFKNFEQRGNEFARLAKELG
Procedure: as §1, §2, §3

[3] = biological target: E. coli MurE (Escherichia coli, UniProt P22188); assay: MurE inhibition assay (Malachite green); type: biochemical
Chain of E. coli MurE (P22188 whole entry): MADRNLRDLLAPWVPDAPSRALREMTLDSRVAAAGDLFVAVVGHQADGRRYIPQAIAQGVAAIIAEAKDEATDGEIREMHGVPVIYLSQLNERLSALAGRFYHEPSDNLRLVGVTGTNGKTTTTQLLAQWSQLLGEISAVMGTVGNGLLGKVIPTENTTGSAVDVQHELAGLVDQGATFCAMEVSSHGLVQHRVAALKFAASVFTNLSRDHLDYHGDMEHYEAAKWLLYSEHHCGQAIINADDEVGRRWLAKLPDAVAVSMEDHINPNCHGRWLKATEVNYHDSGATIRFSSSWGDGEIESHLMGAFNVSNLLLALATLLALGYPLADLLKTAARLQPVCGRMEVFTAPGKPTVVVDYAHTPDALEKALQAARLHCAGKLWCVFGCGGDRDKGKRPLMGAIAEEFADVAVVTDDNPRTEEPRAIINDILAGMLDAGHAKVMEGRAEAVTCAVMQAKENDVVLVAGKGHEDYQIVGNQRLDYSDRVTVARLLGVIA
Procedure: as §1, §2, §3

[4] = biological target: E. coli MurF (Escherichia coli, UniProt P11880); assay: MurF inhibition assay (Malachite green); type: biochemical; conditions: seven compound concentrations, 4-parameter Hill fit; three independent experiments
Chain of E. coli MurF (P11880 whole entry): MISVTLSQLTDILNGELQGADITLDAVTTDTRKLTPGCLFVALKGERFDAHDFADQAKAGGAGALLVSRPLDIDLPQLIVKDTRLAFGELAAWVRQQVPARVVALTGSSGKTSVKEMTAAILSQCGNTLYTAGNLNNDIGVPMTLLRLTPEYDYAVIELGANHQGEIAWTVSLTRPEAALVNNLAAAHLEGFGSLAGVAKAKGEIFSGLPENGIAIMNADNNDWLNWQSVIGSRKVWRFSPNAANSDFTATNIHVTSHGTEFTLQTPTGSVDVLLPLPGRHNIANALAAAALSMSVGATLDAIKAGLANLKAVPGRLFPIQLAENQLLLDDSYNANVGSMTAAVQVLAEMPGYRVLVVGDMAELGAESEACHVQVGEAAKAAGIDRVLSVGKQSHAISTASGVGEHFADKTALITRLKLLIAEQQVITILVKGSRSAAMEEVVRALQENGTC
Procedure: as §1, §2, §3

[5] = system: E. coli (ATCC 25,922); assay: Antibacterial assay, broth microdilution MIC; type: cell-based; conditions: broth microdilution; for MIC: Escherichia coli, ATCC25, 20 h at 35 °C, read-out: MIC E.coli
Procedure: (§4) Antimicrobial testing was performed by the broth microdilution method in 96-well plates following the Clinical and Laboratory Standards Institute guidelines and European Committee on Antimicrobial Susceptibility Testing recommendations (Clinical and Laboratory Standards Institute). Bacterial suspensions equivalent to 0.5 McFarland turbidity standard were diluted with cation-adjusted Mueller–Hinton broth with TES buffering (ThermoFisher Scientific), for a final inoculum of 10^5 CFU/ mL. Compounds dissolved in DMSO and the inoculum were mixed and incubated for 20 h at 35 °C. […] The MICs were determined against two reference bacterial strains, S. aureus (ATCC 29,213) and E. coli (ATCC 25,922). Tetracycline was used as the positive control on every assay plate, with MICs of 0.5 and 1 µg/mL for S. aureus and E. coli, respectively. All MICs were determined in three independent experiments.

[6] = system: S. aureus (ATCC 29,213); assay: Antibacterial assay, broth microdilution MIC; type: cell-based; conditions: broth microdilution; for MIC: Staphylococcus aureus, ATCC29, 20 h at 35 °C, read-out: MIC S.aureus
Procedure: as §4

[7] = biological target: MurF from E. coli (Escherichia coli, UniProt P11880); assay: Steady-state kinetic analysis of compound 21; type: biochemical
Chain of MurF from E. coli (P11880 whole entry): as above
Procedure: For compound 21, Ki values were determined against MurF from E. coli. Ki determinations were performed under similar conditions to those described for the inhibition assay, where the different concentrations of one substrate and a fixed concentration of the other two were used. First, the concentration of UM3DAP was varied (25, 50, 100, 200 µM) at fixed ATP (500 µM) and D-Ala-D-Ala (600 µM)), then the concentration of D-Ala-D-Ala was varied (50, 100, 200, 400, 600 µM) at fixed ATP (500 µM) and UM3DAP (100 µM), and finally, the concentration of ATP was varied (50, 100, 350, 500 µM) at fixed UM3DAP (100 µM) and D-Ala-D-Ala (600 µM). The concentrations of 21 were 0, 25, 50, 75, 100, 200, 350 and 500 µM and the concentration of the MurF was 20 nM. After a 15 min incubation, 100 µM Biomol green reagent® was added, and the absorbance was read at 650 nm after 5 min. All experiments were run in triplicate.
The data were analysed using the SigmaPlot 12.0 software. The initial velocities were fitted to competitive, non-competitive, uncompetitive and mixed enzyme inhibition. The Ki and mode of inhibition from the best ranking model were used, as provided by the software.

[8] = Solubility under the Mur ligase assay conditions; type: physicochemical

**Q.** With Oc1cc(O)c2c(c1)O[C@H](c1ccc(O)c(O)c1)[C@H](O)C2 [Compound 21, (–)-epicatechin] as the compound, how does the remaining activity at 100 µM [1] read?
**A.** 92 ± 8%

**Q.** What about the remaining activity at 100 µM [2] of the same compound?
**A.** 94 ± 9%

**Q.** What about the remaining activity at 100 µM ([3]; 0.25 h, residual activity at 100 µM compound, mean ± SD of three independent experiments, read-out: RA (%) @ 100 µM MurE) of the same compound?
**A.** 79 ± 8%

**Q.** What about the IC50 [4] of the same compound?
**A.** 92 ± 13 µM

**Q.** And the MIC [5]?
**A.** > 250 µM

**Q.** What about the “Inhibition of growth of E. coli (in words)” value [5] of the same compound?
**A.** inactive

**Q.** What about the MIC [6] of the same compound?
**A.** > 250 µM

**Q.** What about the “Inhibition of growth of S. aureus (in words)” value [6] of the same compound?
**A.** inactive

**Q.** What about the Ki ([7]; substrate ATP varied, UM3DAP 100 µM, D-Ala-D-Ala 600 µM fixed) of the same compound?
**A.** 28.5 ± 2.7 µM

**Q.** What about the Ki ([7]; substrate D-Ala-D-Ala varied, ATP 500 µM, UM3DAP 100 µM fixed) of the same compound?
**A.** 58.2 ± 5.1 µM

**Q.** What about the Ki ([7]; substrate UM3DAP varied, ATP 500 µM, D-Ala-D-Ala 600 µM fixed) of the same compound?
**A.** 70.1 ± 4 µM

**Q.** What about the Mechanism of inhibition ([7]; with respect to ATP) of the same compound?
**A.** mixed inhibition; also recorded: mixed inhibitor; also recorded: Mixed (partial)

**Q.** And the “α (mixed partial inhibition model)” value ([7]; with respect to ATP)?
**A.** 1.5

**Q.** What about the “β (mixed partial inhibition model)” value ([7]; with respect to ATP) of the same compound?
**A.** 0.4545

**Q.** What about the Mechanism of inhibition ([7]; with respect to ATP, listed as (–)-epicatechin) of the same compound?
**A.** mixed type inhibition

**Q.** And the Mechanism of inhibition ([7]; with respect to D-Ala-D-Ala)?
**A.** uncompetitive inhibitor; also recorded: Uncompetitive (partial)

**Q.** And the Mechanism of inhibition ([7]; with respect to D-Ala-D-Ala, listed as (–)-epicatechin)?
**A.** uncompetitive inhibition

**Q.** What about the Mechanism of inhibition ([7]; with respect to UM3DAP) of the same compound?
**A.** uncompetitive inhibitor; also recorded: Uncompetitive (partial)

**Q.** What about the Mechanism of inhibition ([7]; with respect to UM3DAP, listed as (–)-epicatechin) of the same compound?
**A.** uncompetitive inhibition

**Q.** Which remaining activity at 100 µM [1] does the source give for Oc1cc(O)c2c(c1)O[C@H](c1ccc(O)c(O)c1)[C@@H](O)[C@H]2O [Compound 20, Leucocyanidin] here?
**A.** 95 ± 8%

**Q.** And the remaining activity at 100 µM [2]?
**A.** 91 ± 9%

**Q.** And the IC50 ([3]; seven compound concentrations, 4-parameter Hill fit, three independent experiments)?
**A.** 164 ± 14 µM

**Q.** And the IC50 [4]?
**A.** 28 ± 8 µM

**Q.** What about the MIC [5] of the same compound?
**A.** > 250 µM

**Q.** What about the MIC [6] of the same compound?
**A.** > 250 µM

**Q.** And the “Solubility under the assay conditions (in words)” value [8]?
**A.** poor solubility
